In patent US6423519B1, “Compositions and methods for inhibiting fungal growth” (GPC Biotech Inc., priority 1998, dated 2002) one finds IC50 data, which are given here for 29 compounds.

The target in assay [1] is human GGTase (Homo sapiens, UniProt P53609). Kind of assay: Human GGTase inhibition (Hu GG). Type of assay: biochemical. The source says:
As described below, a variety of different compounds were synthesized and tested for inhibitory activity against human and Candida GGTase. Exemplary synthesis schemes for generating prenyltransferase inhibitors useful in the methods and compositions of the present invention are shown in FIGS. 1-56. Tables 1-5 provide Structure-Activity relationship (SAR) data for several different classes of prenyltransferase inhibitors.

Assay [2] addresses T1, C. albicans GGPTase (Candida albicans, UniProt Q8J224+Q9Y764).
T1 sequence (Q9Y764 1-398): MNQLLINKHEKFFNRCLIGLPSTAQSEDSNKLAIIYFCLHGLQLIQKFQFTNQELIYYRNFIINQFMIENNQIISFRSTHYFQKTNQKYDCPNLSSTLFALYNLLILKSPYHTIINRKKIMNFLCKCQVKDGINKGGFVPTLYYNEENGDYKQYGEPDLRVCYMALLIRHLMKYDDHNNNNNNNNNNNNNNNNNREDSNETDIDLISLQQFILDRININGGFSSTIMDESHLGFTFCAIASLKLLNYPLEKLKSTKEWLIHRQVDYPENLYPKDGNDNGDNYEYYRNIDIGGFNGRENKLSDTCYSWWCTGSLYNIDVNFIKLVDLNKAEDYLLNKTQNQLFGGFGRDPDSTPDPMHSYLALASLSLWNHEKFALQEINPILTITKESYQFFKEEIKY
T1 sequence (Q8J224 1-306): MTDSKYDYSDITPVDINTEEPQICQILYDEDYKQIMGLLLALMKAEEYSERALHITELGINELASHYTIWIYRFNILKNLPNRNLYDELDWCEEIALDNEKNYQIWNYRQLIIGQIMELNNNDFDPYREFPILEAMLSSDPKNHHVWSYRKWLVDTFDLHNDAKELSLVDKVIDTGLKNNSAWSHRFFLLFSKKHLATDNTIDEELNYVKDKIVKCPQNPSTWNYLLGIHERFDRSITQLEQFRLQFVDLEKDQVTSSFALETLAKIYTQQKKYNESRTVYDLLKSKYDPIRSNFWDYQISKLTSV
Kind of assay: biochemical. The method, then: Plate test compounds (10 μL per well) at predetermined concentration in 50% DMSO. For background control (blank) and reaction control (negative), add 10 μL of 200 μM GGPP and 10 μL 50% DMSO, respectively. Prepare assay buffer: 50 mM Tris, pH7.5, 20 mM KCL, 5 mM MgCl2, 5 μM ZnCl2, 0.5 mM Zw(3-14), 2 mM DTT and 0.1 mg/mL BSA.
Add 20 μL of C. albicans GGPTase and ^3H-GGPP in assay buffer to test compound. Preincubate enzyme and ^3H-GGPP with test compound for 15 minutes at room temperature. Add 20 μL C. albicans Rho in assay buffer. Incubate for 30 minutes at room temperature. Final assay conditions are 2 nM C. albicans GGPTase, 250 nM ^3H-GGPP and 250 nM C. albicans Rho.
Add 100 μL 15 mM GGPP, 50 mM Tris, pH7.0 and 2% BSA to quench reaction. Transfer reaction to Nickel chelate FlashPlate. Allow his-tagged C. albcians Rho to capture onto plate. Rinse plate 1× with 200 μL 20 mM Tris, pH7.0. Read in TOPCOUNT.

The mark [3] stands for this setting: Table 1, read-out: IC50 (nM) Hu GG.
Where [4] appears, read: Table 1 Peptide Analogs, read-out: IC50 (nM) Hu GG.
[5] abbreviates: read-out: IC50 (nM) Ca GG, Table 1.
The mark [6] stands for this setting: Table 1, read-out: IC50 (nM) Ca GG.
Where [7] appears, read: Table 1 Peptide Analogs, read-out: IC50 (nM) Ca GG.
The mark [8] stands for this setting: Table 5, read-out: IC50 (nM) Human.
The mark [9] stands for this setting: Table 5, read-out: IC50 (nM) Candida.
Setting [10] is: Table 3 Piperidine Analogs, read-out: IC50 (nM) Hu GG.
Setting [11] is: Table 3 Piperidine Analogs, read-out: IC50 (nM) Ca GG.

Like-named read-outs stand apart in the source and are kept apart here. Peptide text beside a SMILES is read from it.

In general, IC50 refers to the concentration needed to halve the response being measured. For the compound `CC(C)C[C@H](NC(=O)[C@H](Cc1cccc2ccccc12)NC(=O)[C@H](CCO)NC(=O)[C@@H](N)CS)C(=O)O` [Compound 5a] (HELM PEPTIDE1{C.[O=C([C@H](CCO)N[*:1])[*:2]].[O=C([C@H](Cc1cccc2ccccc12)N[*:1])[*:2]].L}$$$$V2.0), the IC50 in assay [1] (setting [3]), in assay [1] (setting [4]) and in assay [2] was < 500 nM in each case.
As to `CC(C)C[C@H](NC(=O)[C@H](Cc1cccc2ccccc12)NC(=O)[C@H](CN)NC(=O)[C@@H](N)CS)C(=O)O` [Compound 5b] (HELM PEPTIDE1{C.[NC[C@H](N[*:1])C(=O)[*:2]].[O=C([C@H](Cc1cccc2ccccc12)N[*:1])[*:2]].L}$$$$V2.0), the IC50 in assay [1] (setting [3]) was < 500 nM; in assay [1] (setting [4]), < 500 nM; in assay [2] it was < 10 nM; in assay [2] (setting [5]), < 10 nM.
For the compound `CC(C)C[C@H](NC(=O)[C@H](Cc1cccc2ccccc12)NC(=O)[C@@H](N)CNC(=O)[C@@H](N)CS)C(=O)O` [Compound 5c] (HELM PEPTIDE1{[N[C@@H](CN[*:3])C(=O)[*:2]].[O=C([C@H](Cc1cccc2ccccc12)N[*:1])[*:2]].L}|PEPTIDE2{C}$PEPTIDE1,PEPTIDE2,1:R3-1:R2$$$V2.0), the IC50 is > 1000 nM in assay [1] (setting [3]), > 1000 nM in assay [1] (setting [4]), < 1000 nM in assay [2] (setting [6]) and < 1000 nM in assay [2] (setting [7]).
Take `CC(C)C[C@H](NC(=O)[C@H](Cc1cccc2ccccc12)NC(=O)[C@H](CC(=O)O)NC(=O)[C@@H](N)CS)C(=O)O` [Compound 5d] (HELM PEPTIDE1{C.D.[O=C([C@H](Cc1cccc2ccccc12)N[*:1])[*:2]].L}$$$$V2.0): the IC50 in assay [1] (setting [3]), in assay [1] (setting [4]), in assay [2] and in assay [2] (setting [5]) was > 1000 nM throughout.
As to `CC(C)C[C@H](NC(=O)[C@H](Cc1cccc2ccccc12)NC(=O)CCNC(=O)[C@@H](N)CS)C(=O)O` [Compound 5g] (HELM PEPTIDE1{C.[bAla].[O=C([C@H](Cc1cccc2ccccc12)N[*:1])[*:2]].L}$$$$V2.0), the IC50 in assay [1] (setting [3]) is < 500 nM; in assay [1] (setting [4]) it was < 500 nM; in assay [2] (setting [6]), < 1000 nM; in assay [2] (setting [7]), < 1000 nM.
Take `CC(C)C[C@H](NC(=O)[C@H](Cc1cccc2ccccc12)NC(=O)C[C@@H](NC(=O)[C@@H](N)CS)C(N)=O)C(=O)O` [Compound 5h] (HELM PEPTIDE1{[O=C([C@H](Cc1cccc2ccccc12)N[*:1])[*:2]].L}|PEPTIDE2{C.[dD].[am]}$PEPTIDE1,PEPTIDE2,1:R1-2:R3$$$V2.0): the IC50 in assay [1] (setting [3]) was < 500 nM; in assay [1] (setting [4]), < 500 nM; in assay [2] (setting [6]) it was < 1000 nM; in assay [2] (setting [7]) it was < 1000 nM.
For the compound `CC(C)C[C@H](NC(=O)[C@H](Cc1cccc2ccccc12)NC(=O)CNC(=O)[C@@H](N)CS)C(=O)O` [Compound 5i] (HELM PEPTIDE1{C.G.[O=C([C@H](Cc1cccc2ccccc12)N[*:1])[*:2]].L}$$$$V2.0), the concentration for half-maximal inhibition (IC50) in assay [1] (setting [3]), in assay [1] (setting [4]) and in assay [2] was < 500 nM each time.
Consider `CC(C)C[C@H](NC(=O)[C@H](Cc1ccc2ccccc2c1)NC[C@@H](NC[C@@H](N)CS)C(C)C)C(=O)O` [Compound 9], for which the IC50 was < 100 nM in assay [1] (setting [3]); < 100 nM in assay [1] (setting [4]); < 100 nM in assay [1] (setting [8]); < 1000 nM in assay [2] (setting [6]); < 1000 nM in assay [2] (setting [7]); < 1000 nM in assay [2] (setting [9]).
For `CC(C)C[C@H](NC(=O)c1ccc(NC[C@@H](N)CS)cc1-c1ccccc1)C(=O)O` [Compound 17], the IC50 in assay [1] (setting [8]) and in assay [2] (setting [9]) was < 10 nM each time.
As for `CC(C)C[C@@H](C(=O)O)N(C)C(=O)c1ccc(NC[C@@H](N)CS)cc1-c1ccccc1` [Compound 19], the concentration for half-maximal inhibition (IC50) in assay [1] (setting [8]) and in assay [2] (setting [9]) was < 10 nM in each case.
Regarding `CC(C)C[C@H](NC(=O)C1(c2ccccc2)CCN(C(=O)[C@@H](N)CS)CC1)C(=O)O` [Compound 53a], the concentration for half-maximal inhibition (IC50) in assay [1] (setting [10]) and in assay [2] (setting [11]) was < 100 nM in each case.
`N[C@@H](CS)C(=O)N1CCC(C(=O)NCCCCc2ccccc2)(c2ccccc2)CC1` [Compound 53aa]: the half-maximal inhibitory concentration (IC50) in assay [1] (setting [10]) was > 1000 nM; in assay [2] (setting [11]) it was < 100 nM.
The matching figures for `N[C@@H](CS)C(=O)N1CCC(C(=O)NCc2ccccc2-c2ccccc2)(c2ccccc2)CC1` [Compound 53b]: < 1000 nM and < 100 nM.
In the same order, the values of `N[C@@H](CS)C(=O)N1CCC(C(=O)NCc2ccccc2)(c2ccccc2)CC1` [Compound 53bb] are > 1000 nM and < 100 nM.
The matching figures for `CC(C)CCNC(=O)C1(c2ccccc2)CCN(C(=O)[C@@H](N)CS)CC1` [Compound 53c]: < 100 nM and < 100 nM.
`N[C@@H](CS)C(=O)N1CCC(C(=O)NCCc2cccs2)(c2ccccc2)CC1` [Compound 53d]: the results for the IC50 in assay [1] (setting [10]) and in assay [2] (setting [11]) were > 1000 nM and < 500 nM, respectively.
On to `CCOC(=O)N1CCC(NC(=O)C2(c3ccccc3)CCN(C(=O)[C@@H](N)CS)CC2)CC1` [Compound 53l], for which the half-maximal inhibitory concentration (IC50) in assay [1] (setting [10]) and in assay [2] (setting [11]) was > 1000 nM each time.
Turning to `N[C@@H](CS)C(=O)N1CCC(C(=O)NCCc2ccc(S(N)(=O)=O)cc2)(c2ccccc2)CC1` [Compound 53m], the IC50 in assay [1] (setting [10]) and in assay [2] (setting [11]) was > 1000 nM each time.
Take `N[C@@H](CS)C(=O)N1CCC(C(=O)NC2CCCCC2)(c2ccccc2)CC1` [Compound 53s]: the half-maximal inhibitory concentration (IC50) in assay [1] (setting [10]) is > 1000 nM; in assay [2] (setting [11]) it was < 500 nM.
The matching figures for `N[C@@H](CS)C(=O)N1CCC(C(=O)NCC2CCCO2)(c2ccccc2)CC1` (stereo partly shown) [Compound 53t]: > 1000 nM and < 100 nM.
Regarding `N[C@@H](CS)C(=O)N1CCC(C(=O)NCC(c2ccccc2)c2ccccc2)(c2ccccc2)CC1` [Compound 53y], the IC50 in assay [1] (setting [10]) is < 500 nM; in assay [2] (setting [11]), < 100 nM.
On to `N[C@@H](CS)C(=O)N1CCC(C(=O)NCc2ccccc2)CC1` [Compound 59], for which the concentration for half-maximal inhibition (IC50) in assay [1] and in assay [2] was > 1000 nM each time.
Take `N[C@@H](CS)C(=O)N1CCC(C(=O)N(Cc2ccccc2)c2ccccc2)CC1` [Compound 60]: the IC50 in assay [1] and in assay [2] was > 1000 nM each time.
Turning to `N[C@@H](CS)C(=O)N1CCC(C(=O)N(Cc2ccccc2)Cc2ccccc2)CC1` [Compound 61], the IC50 in assay [1] and in assay [2] was > 1000 nM in each case.
As to `N[C@@H](CS)C(=O)N1CCC(C(=O)N(CCc2ccccc2)Cc2ccccc2)CC1` [Compound 62], the IC50 in assay [1] was > 1000 nM; in assay [2], < 200 nM.
Consider `CC1(C(=O)NCc2ccccc2)CCN(C(=O)[C@@H](N)CS)CC1` [Compound 63], for which the 50% inhibitory concentration (IC50) in assay [1] was > 1000 nM; in assay [2], < 500 nM.
`N[C@@H](CS)C(=O)N1CCC(Cc2ccccc2)(C(=O)NCc2ccccc2)CC1` [Compound 64]: the IC50 in assay [1] was > 1000 nM; in assay [2], < 100 nM.
In the same order, the values of `CC(C)/C=C1\NC(=O)N(C2(c3ccccc3)CCN(C(=O)C(N)CS)CC2)C1=O` (stereo not shown) [Compound 70] are > 1000 nM and < 50 nM.
`NC[C@H](NC(=O)[C@@H](N)CS)C(=O)NCc1ccc2c(c1)OCO2` [Compound 89d]: the 50% inhibitory concentration (IC50) in assay [1] (setting [3]), in assay [1] (setting [4]), in assay [2] (setting [6]) and in assay [2] (setting [7]) was > 1000 nM in each case.
